# According to patent US7741327B2 (Hoffmann-La Roche Inc., priority 2008, dated 2010):
# Biological target: T1, Recombinant human liver GK1 (GST-GK) (Homo sapiens, UniProt P35557)
# T1 construct: made in house; host or cells: E. coli
# T1 sequence (P35557 1-466 isoform P35557-2): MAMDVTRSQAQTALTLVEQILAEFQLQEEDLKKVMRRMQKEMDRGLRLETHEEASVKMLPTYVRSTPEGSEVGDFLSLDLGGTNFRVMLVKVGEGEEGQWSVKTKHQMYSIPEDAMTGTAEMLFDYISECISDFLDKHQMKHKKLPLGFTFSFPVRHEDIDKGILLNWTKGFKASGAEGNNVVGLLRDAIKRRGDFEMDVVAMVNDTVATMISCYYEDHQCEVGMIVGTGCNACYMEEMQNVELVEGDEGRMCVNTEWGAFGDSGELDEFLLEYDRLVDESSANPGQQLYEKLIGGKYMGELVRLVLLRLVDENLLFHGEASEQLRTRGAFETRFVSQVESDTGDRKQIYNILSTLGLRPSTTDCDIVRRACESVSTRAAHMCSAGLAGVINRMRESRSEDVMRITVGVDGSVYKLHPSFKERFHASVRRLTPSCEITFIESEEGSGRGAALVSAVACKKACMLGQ
# Test: In vitro glucokinase activity (G6PDH-coupled NADH assay)
# Assay type: biochemical
# Conditions: 30° C., 5 mM D-glucose, 10% DMSO
# In short: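 Activation measured as the rate of OD340 rise from G6PDH-coupled NADH production, relative to 10% DMSO control, reported as SC1.5 (concentration for 50% activity increase). Conditions: 30° C, pH 7.1 Hepes, 5 mM glucose, 1 mM ATP, purified recombinant GST-human GK1, compound preincubated 10 min before enzyme addition.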
row,SMILES,SC1.5 (concentration of activator that produced a 50% increase in the activity of GK) [µM]
1,"CC(C)C[C@@H](C(=O)Nc1ccn(CC(C)(C)O)n1)N1CC(Oc2cccc(CC(C)(C)O)c2)=CC1=O [Example 236, (S)-2-{4-[3-(2-Hydroxy-2-methyl-propyl)-phenoxy]-2-oxo-2,5-dihydro-pyrrol-1-yl}-4-methyl-pentanoic acid [1-(2-hydroxy-2-methyl-propyl)-1H-pyrazol-3-yl]-amide]",0.823
2,"Cc1cccc(OC2=CC(=O)N([C@@H](CC(C)C)C(=O)Nc3ccn(CCO[Si](C)(C)C(C)(C)C)n3)C2)c1F [Example 132, (S)-2-[4-(2-Fluoro-3-methyl-phenoxy)-2-oxo-2,5-dihydro-pyrrol-1-yl]-4-methyl-pentanoic acid {1-[2-(t-butyl-dimethyl-silanyloxy)-ethyl]-1H-pyrazol-3-yl}-amide]",0.577
3,"COc1cccc(OC2=CC(=O)N(C(CC(C)(C)F)C(=O)Nc3ccn(C[C@@H](O)CO)n3)C2)c1Cl (stereo partly drawn) [Example 170, 2-[4-(2-Chloro-3-methoxyphenoxy)-2-oxo-2,5-dihydro-pyrrol-1-yl]-4-fluoro-4-methyl-pentanoic acid-[1-((R)-2,3-dihydroxy-propyl)-1H-pyrazol-3-yl]-amide]",3.575
4,"CC(C)C[C@@H](C(=O)Nc1ccn(C[C@@H](O)CO)n1)N1CC(Oc2cccc(Cl)c2F)=CC1=O [Example 97, (S)-2-[4-(3-Chloro-2-fluoro-phenoxy)-2-oxo-2,5-dihydro-pyrrol-1-yl]-4-methyl-pentanoic acid [1-((R)-2,3-dihydroxy-propyl)-1H-pyrazol-3-yl]-amide]",0.168
5,"CC(C)C[C@@H](C(=O)Nc1ccn(C[C@@H](N)CO)n1)N1CC(Oc2ccccc2Cl)=CC1=O [Example 180, (S)-2-[4-(2-chloro-phenoxy)-2-oxo-2,5-dihydro-pyrrol-1-yl]-4-methyl-pentanoic acid [1-((R)-2-amino-3-hydroxy-propyl)-1H-pyrazol-3-yl]-amide]",6.393
6,"COc1cccc(OC2=CC(=O)N([C@@H](CC3CCCCC3)C(=O)Nc3ccn(CC(C)(C)O)n3)C2)c1Cl [Example 57, (S)-2-[4-(2-Chloro-3-methoxy-phenoxy)-2-oxo-2,5-dihydro-pyrrol-1-yl]-3-cyclohexyl-N-[1-(2-hydroxy-2-methyl-propyl)-1H-pyrazol-3-yl]-propionamide]",0.012
7,"O=C(Nc1ccn(C[C@@H](O)CO)n1)[C@H](CCO)N1CC(Oc2ccccc2Cl)=CC1=O [Example 222, (S)-2-[4-(2-Chloro-phenoxy)-2-oxo-2,5-dihydro-pyrrol-1-yl]-N-[1-((R)-2,3-dihydroxy-propyl)-1H-pyrazol-3-yl]-4-hydroxy-butyramide]",15.278
8,"CC(C)C[C@@H](C(=O)Nc1ccn(C)n1)N1CC(Oc2cccc(O)c2F)=CC1=O [Example 127, (S)-2-[4-(2-Fluoro-3-hydroxy-phenoxy)-2-oxo-2,5-dihydro-pyrrol-1-yl]-4-methyl-pentanoic acid (1-methyl-1H-pyrazol-3-yl)-amide]",0.414
9,"CC(C)(O)Cn1ccc(NC(=O)[C@H](CC2CCCCC2)N2CC(Oc3cccc(OC(F)(F)F)c3)=CC2=O)n1 [Example 211, (S)-3-cyclohexyl-N-[1-(2-hydroxy-2-methyl-propyl)-1H-pyrazol-3-yl]-2-[2-oxo-4-(3-trifluoromethoxy-phenoxy)-2,5-dihydro-pyrrol-1-yl]-propionamide]",0.055
10,"CCOc1ccc(F)c(OC2=CC(=O)N([C@@H](CC(C)C)C(=O)Nc3cnc([C@H](O)CO)cn3)C2)c1F [Example 153, (S)-2-[4-(3-Ethoxy-2,6-difluoro-phenoxy)-2-oxo-2,5-dihydro-pyrrol-1-yl]-4-methyl-pentanoic acid [5-((S)-1,2-dihydroxy-ethyl)-pyrazin-2-yl]-amide]",0.207
11,"CC(C)(O)Cn1ccc(NC(=O)[C@H](CC2CCCCC2)N2CC(Oc3cc(Cl)ccc3Cl)=CC2=O)n1 [Example 201, (S)-3-cyclohexyl-2-[4-(2,5-dichloro-phenoxy)-2-oxo-2,5-dihydro-pyrrol-1-yl]-N-[1-(2-hydroxy-2-methyl-propyl)-1H-pyrazol-3-yl]-propionamide]",0.013
12,"COC(=O)c1ccc(NC(=O)[C@H](CC(C)C)N2CC(Oc3c(F)cccc3F)=CC2=O)nc1 [Example 46, 6-{(S)-2-[4-(2,6-difluoro-phenoxy)-2-oxo-2,5-dihydro-pyrrol-1-yl]-4-methyl-pentanoylamino}-nicotinic acid methyl ester]",0.097
13,"COc1cccc(OC2=CC(=O)N([C@@H](CC(C)C)C(=O)Nc3ccn(CC(C)(C)O)n3)C2)c1 [Example 165, (S)-2-[4-(3-Methoxy-phenoxy)-2-oxo-2,5-dihydro-pyrrol-1-yl]-4-methyl-pentanoic acid [1-(2-hydroxy-2-methyl-propyl)-1H-pyrazol-3-yl]-amide]",0.243
14,"CCN(C)C1=CC(=O)N([C@@H](CC2CCCCC2)C(=O)Nc2ccn(CC(C)(C)O)n2)C1 [Example 233, (S)-3-cyclohexyl-2-[4-(ethyl-methyl-amino)-2-oxo-2,5-dihydro-pyrrol-1-yl]-N-[1-(2-hydroxy-2-methyl-propyl)-1H-pyrazol-3-yl]-propionamide]",13.348
15,"O=C(Nc1ccn(C[C@@H](O)CO)n1)C(CC1CCC1)N1CC(Oc2ccccc2Cl)=CC1=O (stereo partly drawn) [Example 169, 2-[4-(2-chloro-phenoxy)-2-oxo-2,5-dihydro-pyrrol-1-yl]-3-cyclobutyl-N-[1-((R)-2,3-dihydroxy-propyl)-1H-pyrazol-3-yl]-propionamide]",0.086
16,"CC(C)C[C@@H](C(=O)Nc1ccn(C[C@@H]2COC(C)(C)O2)n1)N1CC(Oc2cccc(N3CCCC3)c2F)=CC1=O [Example 141, (S)-2-[4-(2-Fluoro-3-pyrrolidin-1-yl-phenoxy)-2-oxo-2,5-dihydro-pyrrol-1-yl]-4-methyl-pentanoic acid [1-((R)-2,2-dimethyl-[1,3]dioxolan-4-yl-methyl)-1H-pyrazol-3-yl]-amide]",0.516
17,"CC(C)(O)Cn1ccc(NC(=O)[C@H](CC2CCCCC2)N2CC(Oc3ccccc3)=CC2=O)n1 [Example 213, (S)-3-cyclohexyl-N-[1-(2-hydroxy-2-methyl-propyl)-1H-pyrazol-3-yl]-2-(2-oxo-4-phenoxy-2,5-dihydro-pyrrol-1-yl)-propionamide]",0.028
18,"CCOc1ccccc1OC1=CC(=O)N([C@@H](CC(C)C)C(=O)Nc2ccn(CC(C)(C)O)n2)C1.Cl [Example 81, (S)-2-[4-(2-ethoxy-phenoxy)-2-oxo-2,5-dihydro-pyrrol-1-yl]-4-methyl pentanoic acid [1-(2-hydroxy-2-methyl-propyl)-1H-pyrazol-3-yl]-amide hydrochloride]",0.932
19,"COc1ccccc1OC1=CC(=O)N([C@@H](CC2CCCO2)C(=O)Nc2ccn(CC(C)(C)O)n2)C1 (stereo partly drawn) [Example 178, (S)-N-[1-(2-hydroxy-2-methyl-propyl)-1H-pyrazol-3-yl]-2-[4-(2-methoxy-phenoxy)-2-oxo-2,5-dihydro-pyrrol-1-yl]-3-(tetrahydro-furan-2-yl)-propionamide]",2.231
20,CC(C)C[C@@H](C(=O)Nc1ccn(C[C@@H]2COC(C)(C)O2)n1)N1CC(Oc2ccccc2Cl)=CC1=O [Example 65],0.527
21,"C=Cc1cccc(OC2=CC(=O)N([C@@H](CC(C)C)C(=O)Nc3ccn(C[C@@H]4COC(C)(C)O4)n3)C2)c1F [Example 144, (S)-2-[4-(2-Fluoro-3-vinyl-phenoxy)-2-oxo-2,5-dihydro-pyrrol-1-yl]-4-methyl-pentanoic acid [1-((R)-2,2-dimethyl-[1,3]dioxolan-4-yl-methyl)-1H-pyrazol-3-yl]-amide]",0.251
22,"CC(C)C[C@@H](C(=O)Nc1ccn(CC(C)(C)O)n1)N1CC(Oc2cccc(O)c2N)=CC1=O [Example 241, (S)-2-[4-(2-Amino-3-hydroxy-phenoxy)-2-oxo-2,5-dihydro-pyrrol-1-yl]-4-methyl-pentanoic acid [1-(2-hydroxy-2-methyl-propyl)-1H-pyrazol-3-yl]-amide]",2.458
23,"CCOc1ccccc1OC1=CC(=O)N([C@@H](CC(C)C)C(=O)Nc2ccn(CCO)n2)C1.Cl [Example 85, (S)-2-[4-(2-Ethoxy-phenoxy)-2-oxo-2,5-dihydro-pyrrol-1-yl]-4-methyl-pentanoic acid [1-(2-hydroxy-ethyl)-1H-pyrazol-3-yl]-amide Hydrochloride]",1.998
